Results published in publication PMC9610081, “Design and Synthesis of Aminopyrimidinyl Pyrazole Analogs as PLK1 Inhibitors Using Hybrid 3D-QSAR and Molecular Docking” (Pharmaceuticals, 2022).

Biological target: PLK1 (polo-like kinase 1) (Homo sapiens, UniProt P53350)
Experiment: radiometric […]-ATP kinase assay, casein substrate, […] ATP (Reaction Biology)
Type: biochemical

PLK1 (polo-like kinase 1), sequence (P53350 2-603): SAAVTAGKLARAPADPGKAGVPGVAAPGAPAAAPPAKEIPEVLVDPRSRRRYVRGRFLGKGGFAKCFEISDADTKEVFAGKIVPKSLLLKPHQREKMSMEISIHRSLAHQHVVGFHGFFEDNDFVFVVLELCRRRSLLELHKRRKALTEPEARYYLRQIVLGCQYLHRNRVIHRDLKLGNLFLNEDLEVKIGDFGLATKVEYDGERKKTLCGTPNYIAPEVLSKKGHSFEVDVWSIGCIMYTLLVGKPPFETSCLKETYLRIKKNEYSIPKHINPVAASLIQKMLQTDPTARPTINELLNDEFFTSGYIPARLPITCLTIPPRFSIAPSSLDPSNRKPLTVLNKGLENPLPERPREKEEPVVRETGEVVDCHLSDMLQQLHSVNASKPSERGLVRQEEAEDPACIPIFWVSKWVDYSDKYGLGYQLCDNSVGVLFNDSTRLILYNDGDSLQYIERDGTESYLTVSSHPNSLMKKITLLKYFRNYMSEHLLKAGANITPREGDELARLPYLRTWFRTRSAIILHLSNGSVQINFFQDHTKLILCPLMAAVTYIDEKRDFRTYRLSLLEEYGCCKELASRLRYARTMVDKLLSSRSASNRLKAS

Row | Compound | IC50 [µM]
1 | CCOC(=O)c1nn(-c2ccnc(Nc3ccc4c(c3)N(C(=O)N(C)C)CC4)n2)cc1/C=C/c1ccccc1 [D39, Ethyl (E)-1-(2-((1-(dimethylcarbamoyl)indolin-6-yl)amino)pyrimidin-4-yl)-4-styryl-1H-pyrazole-3-carboxylate] | 1.43
2 | CN(C)C(=O)N1CCc2ccc(Nc3nccc(-n4cc(/C=C/c5ccccc5)c(C(N)=O)n4)n3)cc21 [D40, (E)-6-((4-(3-carbamoyl-4-styryl-1H-pyrazol-1-yl)pyrimidin-2-yl)amino)-N,N-dimethylindoline-1-carboxamide] | 0.359
